Values quoted from earlier work, collected in article PMC2862725 (Molecular cancer therapeutics, 2009).
Like-named read-outs stand apart in the source and are kept apart here.

How the values were obtained:
[1] = wild-type tumor group; set equal to single-dose PK/PD model ref 9
[2] = vIII mutant tumor group; set equal to single-dose PK/PD model ref 9
[3] = n = 5, two patients with malignant gliomas

- Vc volume of distribution of the central compartment [1]: 75.0 mL
- Vc volume of distribution of the central compartment [2]: 103.8 mL
- gefitinib brain tumor concentration, mean [3]: 9.4 ± 9.3 µg/g
Structure (SMILES): COc1cc2ncnc(Nc3ccc(F)c(Cl)c3)c2cc1OCCCN1CCOCC1 [gefitinib, Gefitinib]
